Source: patent publication US8999982B2, “Pharmaceutically active compounds as Axl inhibitors” (Lead Discovery Center GmbH, priority 2010, dated 2015)
Structures can show the parent of a compound that is named as a salt.

How the values were obtained:
Axl [1] = target: T1, Axl (Homo sapiens (Human), UniProt P30530); experiment: Cellular Axl phosphorylation assay; type: cell-based; conditions: HEK293 cells transfected with Axl cDNA, 1 hour incubation
Method: 3. Cellular Axl Phosphorylation Assay:
HEK293 embryonal kidney fibroblasts were transfected in 96 wells with a plasmid containing Axl cDNA. As transfection reagent Superfect (Qiagen) was used. Transfection of the sole vector backbone served as negative control of Axl expression. After overnight incubation the cellular supernatant was replaced with fresh medium. On the following day the Axl-expressing cells were incubated for 1 hour with a compound according to formula (I) at the suitable concentrations. […] The mesoscale technology was used for quantification.

Axl [2] = target: T1, Axl; experiment: Axl binding assay
Method: Binding of the tracer to the kinase is detected using an EU-labeled anti-tag antibody. […] Binding of an inhibitor to the kinase competes for binding with the tracer, resulting in a loss of FRET-signal. At first a compound according to formula (I) was diluted in 20 mM Hepes pH 8.0, 1 mM DTT, 10 mM MgCl2 and 0.01% Brij35.

T1 sequence (P30530 26-894): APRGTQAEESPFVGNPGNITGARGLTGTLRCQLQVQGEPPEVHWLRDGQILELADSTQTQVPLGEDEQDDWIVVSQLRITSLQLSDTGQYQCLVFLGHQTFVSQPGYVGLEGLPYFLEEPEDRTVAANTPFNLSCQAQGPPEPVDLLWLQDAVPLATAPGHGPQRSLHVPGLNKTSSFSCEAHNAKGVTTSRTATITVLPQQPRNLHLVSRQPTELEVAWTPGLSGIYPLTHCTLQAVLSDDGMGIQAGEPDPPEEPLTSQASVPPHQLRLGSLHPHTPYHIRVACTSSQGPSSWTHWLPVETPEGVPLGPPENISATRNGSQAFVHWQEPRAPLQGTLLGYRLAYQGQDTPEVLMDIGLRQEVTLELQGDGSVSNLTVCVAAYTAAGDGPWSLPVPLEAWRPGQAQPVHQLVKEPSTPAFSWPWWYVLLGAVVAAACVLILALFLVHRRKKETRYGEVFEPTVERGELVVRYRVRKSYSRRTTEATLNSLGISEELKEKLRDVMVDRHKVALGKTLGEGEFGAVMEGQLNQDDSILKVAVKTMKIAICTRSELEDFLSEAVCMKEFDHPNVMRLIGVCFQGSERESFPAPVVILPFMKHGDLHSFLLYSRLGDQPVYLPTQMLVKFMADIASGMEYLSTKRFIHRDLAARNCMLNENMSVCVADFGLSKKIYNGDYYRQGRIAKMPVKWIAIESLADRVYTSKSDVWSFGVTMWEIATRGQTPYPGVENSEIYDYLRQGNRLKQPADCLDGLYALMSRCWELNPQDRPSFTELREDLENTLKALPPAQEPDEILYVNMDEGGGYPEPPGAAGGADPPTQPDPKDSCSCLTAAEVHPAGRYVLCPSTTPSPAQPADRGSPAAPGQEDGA

Structure (SMILES) | IC50 (Axl [1]) [nM] | IC50 (Axl [2]) [nM] | IC50 (Axl [2]; listed as compound 64) [nM]
COc1cc2c(Oc3ccc(NC(=O)c4nn(C)cc4Br)cc3F)ccnc2cc1OCCCN1CCOCC1 [Example 39, 4-bromo-N-[3-fluoro-4-[[6-methoxy-7-(3-morpholinopropoxy)-4-quinolyl]oxy]phenyl]-1-methyl-pyrazole-3-carboxamide] | < 500 | 500 to 5000 | –
COc1cc2nccc(Oc3ccc(NC(=O)c4ccn(COCC(F)(F)F)n4)cc3F)c2cc1OC [Example 15, N-[4-[(6,7-dimethoxy-4-quinolyl)oxy]-3-fluoro-phenyl]-1-(2,2,2-trifluoroethoxymethyl)pyrazole-3-carboxamide] | < 500 | 500 to 5000 | –
CCOc1cn(-c2ccc(F)cc2)nc1C(=O)Nc1ccc(Oc2ccnc3cc(OC)c(OC)cc23)c(Cl)c1 [Example 32, N-[3-chloro-4-[(6,7-dimethoxy-4-quinolyl)oxy]phenyl]-4-ethoxy-1-(4-fluorophenyl)pyrazole-3-carboxamide] | < 500 | < 500 | –
CCOc1cn(-c2ccc(F)cc2)nc1C(=O)Nc1ccc(Oc2ccnc3cc(OC)c(OC)cc23)c(F)c1 [Example 16, N-[4-[(6,7-dimethoxy-4-quinolyl)oxy]-3-fluoro-phenyl]-4-ethoxy-1-(4-fluorophenyl)pyrazole-3-carboxamide] | < 500 | < 500 | –
CCOc1cn(-c2ccc(F)cc2C)nc1C(=O)Nc1ccc(Oc2ccnc3cc(OCCCN4CCN(C)CC4)c(OC)cc23)c(F)c1 [Example 57, 4-ethoxy-N-[3-fluoro-4-[[6-methoxy-7-[3-(4-methylpiperazin-1-yl)propoxy]-4-quinolyl]oxy]phenyl]-1-(4-fluoro-2-methyl-phenyl)pyrazole-3-carboxamide] | < 500 | < 500 | –
COc1cc2nccc(Oc3ccc(NC(=O)c4nn(-c5ccc(F)cc5)cc4OC(C)C)cc3F)c2cc1OC [Example 21, N-[4-[(6,7-dimethoxy-4-quinolyl)oxy]-3-fluoro-phenyl]-1-(4-fluorophenyl)-4-isopropoxy-pyrazole-3-carboxamide] | < 500 | < 500 | –
COc1cc2nccc(Oc3ccc(NC(=O)c4nn(-c5ccc(F)cc5)cc4OCC4CC4)cc3)c2cc1OC [Example 26, 4-(cyclopropylmethoxy)-N-[4-[(6,7-dimethoxy-4-quinolyl)oxy]phenyl]-1-(4-fluorophenyl)pyrazole-3-carboxamide] | < 500 | < 500 | –
COc1cc2c(Oc3ccc(NC(=O)c4nn(-c5ccc(F)cc5)cc4OC)cc3F)ccnc2cc1OCCCN1CCOCC1 [Example 44, N-[3-fluoro-4-[[6-methoxy-7-(3-morpholinopropoxy)-4-quinolyl]oxy]phenyl]-1-(4-fluorophenyl)-4-methoxy-pyrazole-3-carboxamide] | < 500 | < 500 | –
CCOc1cn(-c2ccc(F)cc2Br)nc1C(=O)Nc1ccc(Oc2ccnc3cc(OCCCN4CCOCC4)c(OC)cc23)c(F)c1 [Example 49, 1-(2-bromo-4-fluoro-phenyl)-4-ethoxy-N-[3-fluoro-4-[[6-methoxy-7-(3-morpholinopropoxy)-4-quinolyl]oxy]phenyl]pyrazole-3-carboxamide] | < 500 | < 500 | –
COc1cc2nccc(Oc3ccc(NC(=O)c4nn(-c5ccc(F)cc5)cc4OC(C)C)cc3)c2cc1OC [Example 25, N-[4-[(6,7-dimethoxy-4-quinolyl)oxy]phenyl]-1-(4-fluorophenyl)-4-isopropoxy-pyrazole-3-carboxamide] | < 500 | < 500 | –
COc1cc2nccc(Oc3ccc(NC(=O)c4nn(-c5ccc(F)cc5)cc4OCC4CC4)cc3F)c2cc1OC [Example 18, 4-(cyclopropylmethoxy)-N-[4-[(6,7-dimethoxy-4-quinolyl)oxy]-3-fluoro-phenyl]-1-(4-fluorophenyl)pyrazole-3-carboxamide] | < 500 | < 500 | –
COc1cc2nccc(Oc3ccc(NC(=O)c4nn(-c5ccc(F)cc5)cc4CCN(C)C)cc3F)c2cc1OC [Example 36, N-(4-((6,7-dimethoxyquinolin-4-yl)oxy)-3-fluorophenyl)-4-(2-(dimethylamino)ethyl)-1-(4-fluorophenyl)-1H-pyrazole-3-carboxamide] | < 500 | < 500 | –

Second part, the compound after the results:

IC50 (Axl [1]) [nM] | IC50 (Axl [2]) [nM] | IC50 (Axl [2]; listed as compound 64) [nM] | Structure (SMILES)
< 500 | < 500 | – | COc1cc2c(Oc3ccc(NC(=O)c4nc(Br)cs4)nc3)ccnc2cc1OCC1CCNCC1 [Example 102, 4-bromo-N-(5-((6-methoxy-7-(piperidin-4-ylmethoxy)quinolin-4-yl)oxy)pyridin-2-yl)thiazole-2-carboxamide]
< 500 | < 500 | – | CCOc1cn(-c2ccc(F)cc2C)nc1C(=O)Nc1ccc(Oc2ccnc3cc(OCC4CCNCC4)c(OC)cc23)c(F)c1 [Example 74, 4-ethoxy-N-[3-fluoro-4-[[6-methoxy-7-(4-piperidylmethoxy)-4-quinolyl]oxy]phenyl]-1-(4-fluoro-2-methyl-phenyl)pyrazole-3-carboxamide]
< 500 | < 500 | – | COc1cc2c(Oc3ccc(NC(=O)c4nn(-c5ccc(F)cc5)cc4OCC4CC4)cc3F)ccnc2cc1OCCCN1CCNCC1 [Example 64, 4-(cyclopropylmethoxy)-N-[3-fluoro-4-[[6-methoxy-7-(3-piperazin-1-ylpropoxy)-4-quinolyl]oxy]phenyl]-1-(4-fluorophenyl)pyrazole-3-carboxamide trifluoroacetic acid salt]
< 500 | < 500 | – | COc1cc2c(Oc3ccc(NC(=O)c4nn(-c5ccc(F)cc5)cc4Br)cc3F)ccnc2cc1OCC1CCNCC1 [Example 76, 4-bromo-N-[3-fluoro-4-[[6-methoxy-7-(4-piperidylmethoxy)-4-quinolyl]oxy]phenyl]-1-(4-fluorophenyl)pyrazole-3-carboxamide]
< 500 | < 500 | – | CCOc1cn(-c2ccc(OC)cc2C)nc1C(=O)Nc1ccc(Oc2ccnc3cc(OC)c(OC)cc23)cn1 [Example 89, N-(5-((6,7-dimethoxyquinolin-4-yl)oxy)pyridin-2-yl)-4-ethoxy-1-(4-methoxy-2-methylphenyl)-1H-pyrazole-3-carboxamide]
< 500 | < 500 | – | CCOc1cn(-c2ccc(F)cc2C)nc1C(=O)Nc1ccc(Oc2ccnc3cc(OCC4CCN(CC(C)C)CC4)c(OC)cc23)c(F)c1 [Example 83, 4-ethoxy-N-[3-fluoro-4-[[7-[(1-isobutyl-4-piperidyl)methoxy]-6-methoxy-4-quinolyl]oxy]phenyl]-1-(4-fluoro-2-methyl-phenyl)pyrazole-3-carboxamide]
< 500 | < 500 | – | COc1cc2c(Oc3ccc(NC(=O)c4nn(-c5ccc(F)cc5)cc4OC(C)C)cc3F)ccnc2cc1OCCCN1CCN(C)CC1 [Example 62, N-[3-fluoro-4-[[6-methoxy-7-[3-(4-methylpiperazin-1-yl)propoxy]-4-quinolyl]oxy]phenyl]-1-(4-fluorophenyl)-4-isopropoxy-pyrazole-3-carboxamide]
500 to 5000 | < 500 | – | COc1cc2c(Oc3ccc(NC(=O)c4nn(-c5ccc(F)cc5)cc4OCC4CCN(C)C4)cc3F)ccnc2cc1OCCCN1CCNCC1 (stereo not shown) [Example 71, N-[3-fluoro-4-[[6-methoxy-7-(3-piperazin-1-ylpropoxy)-4-quinolyl]oxy]phenyl]-1-(4-fluorophenyl)-4-[(1-methylpyrrolidin-3-yl)methoxy]pyrazole-3-carboxamide]
< 500 | < 500 | – | COc1cc2c(Oc3ccc(NC(=O)c4nn(-c5ccc(F)cc5)cc4OC)cc3F)ccnc2cc1OCC1CCNCC1 [Example 73, N-[3-fluoro-4-[[6-methoxy-7-(4-piperidylmethoxy)-4-quinolyl]oxy]phenyl]-1-(4-fluorophenyl)-4-methoxy-pyrazole-3-carboxamide]
500 to 5000 | < 500 | – | COc1cc2c(Oc3ccc(NC(=O)c4csc(-c5ccccc5)n4)cc3F)ccnc2cc1OCC1CCNCC1 [Example 81, N-[3-fluoro-4-[[6-methoxy-7-(4-piperidylmethoxy)-4-quinolyl]oxy]phenyl]-2-phenyl-thiazole-4-carboxamide]
< 500 | < 500 | – | COCCOc1cn(-c2ccc(F)cc2)nc1C(=O)Nc1ccc(Oc2ccnc3cc(OCCCN4CCNCC4)c(OC)cc23)c(F)c1 [Example 70, N-[3-fluoro-4-[[6-methoxy-7-(3-piperazin-1-ylpropoxy)-4-quinolyl]oxy]phenyl]-1-(4-fluorophenyl)-4-(2-methoxyethoxy)pyrazole-3-carboxamide]
< 500 | < 500 | – | CCOc1cn(-c2ccc(F)cc2C)nc1C(=O)Nc1ccc(Oc2ccnc3cc(OCCCN4CCNCC4)c(OC)cc23)c(F)c1 [Example 69, 4-ethoxy-N-[3-fluoro-4-[[6-methoxy-7-(3-piperazin-1-ylpropoxy)-4-quinolyl]oxy)phenyl]-1-(4-fluoro-2-methyl-phenyl)pyrazole-3-carboxamide]
< 500 | < 500 | – | COc1cc2c(Oc3ccc(NC(=O)c4nn(-c5ccc(F)cc5)cc4OCC4CC4)cc3F)ccnc2cc1OCCCN1CCN(C)CC1 [Example 61, 4-(cyclopropylmethoxy)-N-[3-fluoro-4-[[6-methoxy-7-[3-(4-methylpiperazin-1-yl)propoxy]-4-quinolyl]oxy]phenyl]-1-(4-fluorophenyl)pyrazole-3-carboxamide]
– | > 10000 | ≥ 10000 | COc1cc2nccc(Oc3ccc(NC(=O)c4ccco4)cc3)c2cc1OC [Ref3, N-(4-((6,7-dimethoxyquinolin-4-yl)oxy)phenyl)furan-2-carboxamide, reference compound]
